The values that follow come from patent US20060217418A1, “Substituted alkyl amido piperidines” (priority 2001, published 2006).

The target of one experiment is T1, rat MCH1 receptor (Rattus norvegicus, UniProt P97639).
T1 construct: operatively linked to DNA encoding the rat MCH1 receptor so as to permit expression thereof; expressed in transfected cells; host or cells: Human embryonic kidney Peak rapid 293 (Peakr293) cells, transient calcium phosphate transfection, membranes
The experiment can be described thus: Radioligand binding assay at cloned rat MCH1 receptor ([3H]Compound A). Particulars: cloned rat MCH1, Peakr293 cell membranes, 0.08 nM [3H]Compound A, 25° C., 90 minutes; read-out: Ki(MCH-1).

Another experiment relates to Sprague Dawley rats. As to the kind of experiment: Continuous Slow Transvesicular Infusion (CSTI) rat model. The class given is in vivo. Set-up: key: F: Produced an increase in bladder capacity in rats relative to baseline capacity. To be noted: intragastric administration, bladder capacity relative to baseline capacity. The procedure: Male Sprague Dawley rats weighing approximately 300 g were used for the study. Rats were anaesthetized with pentobarbitone sodium (50 mg/kg, i.p). Through a median abdominal incision, bladder was exposed and a polyethylene cannula (PE 50) was introduced into the bladder through a small cut on the dome of the bladder and the cannula was secured with a purse string suture. The other end of the cannula was exteriorized subcutaneously at the dorsal neck area. Similarly, another cannula (PE 50) was introduced into the stomach through a paramedian abdominal incision with the free end exteriorized subcutaneously to the neck region. The surgical wounds were closed with silk 4-0 suture and the animal was allowed to recover with appropriate post surgical care. On the following day, the animal was placed in a rat restrainer. The open end of the bladder-cannula was connected to a pressure transducer as well as infusion pump through a three-way stopcock. The bladder voiding cycles were initiated by continuous infusion of normal saline at the rate of 100 μl/min. The repetitive voiding contractions were recorded on a Power Lab on-line data acquisition software. After recording the basal voiding pattern for an hour, the test drug or vehicle was administered directly into stomach through the intragastric catheter and the voiding cycles were monitored for 5 hours. Micturition pressure and frequency were calculated before and after the treatment (at every 30 min interval) for each animal. Bladder capacity was calculated from the micturition frequency, based on the constant infusion of 100 μl/min. The effect of the test drug was expressed as a percentage of basal, pre-drug bladder capacity. WAY 100635 was used as positive control for comparison.

For experiment [1] the following is noted: in vivo; cited from earlier work.

T1 sequence (P97639 whole entry): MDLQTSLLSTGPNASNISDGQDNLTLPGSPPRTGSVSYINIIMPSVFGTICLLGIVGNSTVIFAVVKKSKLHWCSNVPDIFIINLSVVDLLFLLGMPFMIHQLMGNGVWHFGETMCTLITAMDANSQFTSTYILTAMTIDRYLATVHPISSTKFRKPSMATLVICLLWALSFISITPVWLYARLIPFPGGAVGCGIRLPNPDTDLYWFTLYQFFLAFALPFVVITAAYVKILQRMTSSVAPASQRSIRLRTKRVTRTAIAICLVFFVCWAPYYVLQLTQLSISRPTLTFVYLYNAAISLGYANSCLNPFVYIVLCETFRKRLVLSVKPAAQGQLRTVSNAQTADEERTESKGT

Usually Ki stands for the dissociation constant of the complex between target and ligand, obtained from inhibition or displacement. Consider `CC(C)C(=O)Nc1cccc(C2CCN(CCCNC(=O)C(C)(C)c3ccc(Cl)cc3)CC2)c1` [Example 8, 2-(4-CHLOROPHENYL)-N-(3-{4-[3-(ISOBUTYRYLAMINO)PHENYL]-1-PIPERIDINYL} PROPYL)-2-METHYLPROPANAMIDE], for which the inhibition constant Ki at rat MCH1 receptor amounted to 11.7 nM. In the experiment with Sprague Dawley rats, the CSTI entry was “F”.

In the case of `CN(C)CC1CCc2cc(NC(=O)c3ccc(-c4ccc(F)cc4)cc3)ccc2C1` (stereo not drawn) [Example T-226296], the “food intake induced by the intracerebroventricular application of MCH” value in experiment [1] is “inhibit food intake”. Regarding `CC(C)C(=O)Nc1ccc(F)c(C2CCN(CCCNC(=O)C(c3ccccc3)c3ccccc3)CC2)c1` [Example 24], the inhibitory constant (Ki) at rat MCH1 receptor came out at 4.7 nM. The CSTI result in the experiment with Sprague Dawley rats is “F”. Consider `CC(C)C(=O)Nc1cccc(C2CCN(CCCNC(=O)C(c3ccc(F)cc3)c3ccc(F)cc3)CC2)n1` [Example 29], for which, at rat MCH1 receptor, the Ki worked out at 2.3 nM. Also, the CSTI entry in the experiment on Sprague Dawley rats was “F”. `CC(C)C(=O)Nc1cccc(C2CCN(CCCNC(=O)C(c3ccc(F)cc3)c3ccc(F)cc3)CC2)c1` [Example 1, N-{3-[1-(3-{[BIS(4-FLUOROPHENYL)ACETYL]AMINO}PROPYL)-4-PIPERIDINYL] PHENYL}-2-METHYLPROPANAMIDE]: the Ki at rat MCH1 receptor was determined as 1.3 nM. Also, in the experiment with Sprague Dawley rats, the CSTI result is “F”. On to `CC(=O)Nc1cccc(C2CCN(CCCNC(=O)C(c3ccccc3)c3ccccc3)CC2)c1` [Example 3, N-(3-{4-[3-(acetylamino)phenyl]-piperidinyl}propyl)-2,2-diphenylacetamide], for which the Ki on rat MCH1 receptor stood at 2.5 nM. Also, in the experiment on Sprague Dawley rats, the CSTI result is listed as “F”.

As for `Cc1ccc(NC(=O)C(C)C)cc1C1CCN(CCCNC(=O)C(c2ccccc2)c2ccccc2)CC1` [Example 4], at rat MCH1 receptor, the inhibition constant (Ki) came out at 2.5 nM. Further, in the experiment with Sprague Dawley rats, the CSTI entry is reported as “F”.

In the case of `CC(C)C(=O)Nc1cccc(C2CCN(CCCNC(=O)C(c3ccccc3)c3ccccc3)CC2)n1` [Example 6], the inhibitory constant (Ki) on rat MCH1 receptor turned out to be 5.6 nM. Further, the CSTI result with Sprague Dawley rats was “F”. The corresponding values for `Cc1ccc(NC(=O)C(C)C)cc1C1CCN(CCCNC(=O)C(c2ccc(F)cc2)c2ccc(F)cc2)CC1` [Example 32] are 0.6 nM and “F”. Turning to `O=C(Nc1cccc(C2CCN(CCCNC(=O)C(c3ccc(F)cc3)c3ccc(F)cc3)CC2)c1)OCc1ccccc1` [Example 141, Benzyl 3-[1-(3-{[bis(4-fluorophenyl)acetyl]amino}propyl)-4-piperidinyl]phenylcarbamate], the Ki on rat MCH1 receptor worked out at 8.8 nM.

Regarding `CC(C)C(=O)Nc1ccc(F)c(C2CCN(CCCNC(=O)C(c3ccc(F)cc3)c3ccc(F)cc3)CC2)c1` [Example 35, N-{3-[1-(3-{[bis(4-fluorophenyl)acetyl]amino}propyl)-4-piperidinyl]-4-fluorophenyl}-2-methylpropanamide], the Ki at rat MCH1 receptor came out at 0.4 nM. Also, the CSTI entry in the experiment on Sprague Dawley rats is reported as “F”. For the molecule `CC(C)OC(=O)Nc1cccc(C2CCN(CCCNC(=O)C(c3ccc(F)cc3)c3ccc(F)cc3)CC2)c1` [Example 146, ISOPROPYL 3-[1-(3-{[BIS(4-FLUOROPHENYL)ACETYL]AMINO}PROPYL)-4-PIPERIDINYL]PHENYLCARBAMATE], the Ki on rat MCH1 receptor is 6.2 nM. In the case of `CC(C)C(=O)Nc1ccc(F)c(C2CCN(CCCNC(=O)C3(c4ccc(F)cc4)CCCC3)CC2)c1` [Example 129], the inhibitory constant (Ki) at rat MCH1 receptor came to 4.5 nM. Same read-out and setting: next, `O=C(Nc1cccc(C2CCN(CCCNC(=O)C3(c4ccc(F)cc4)CCCC3)CC2)c1)C1CC1` [Example 121, N-[3-(4-{3-[(CYCLOPROPYLCARBONYL)AMINO]PHENYL}-1-PIPERIDINYL) PROPYL]-1-(4-FLUOROPHENYL)CYCLOPENTANECARBOXAMIDE]: 10.2 nM; `CCC(=O)Nc1cccc(C2CCN(CCCNC(=O)C3(c4ccc(Cl)cc4)CCCC3)CC2)c1` [Example 62, 1-(4-CHLOROPHENYL)-N-(3-{4-[3-PROPIONYLAMINO)PHENYL]-1-PIPERIDINYL} PROPYL)CYCLOPENTANECARBOXAMIDE]: 31.7 nM.

For the molecule `CC(=O)Nc1cccc(C2CCN(CCCNC(=O)C3(c4ccc(Cl)cc4)CC3)CC2)c1` [Example 71, N-(3-{4-[3-(ACETYLAMINO)PHENYL]-1-PIPERIDINYL}PROPYL)-1-(4-CHLORO PHENYL) CYCLOPROPANECARBOXAMIDE], the inhibition constant (Ki) on rat MCH1 receptor is 54.5 nM. Still for that read-out and setting: with `CCSC(C(=O)NCCCN1CCC(c2cccc(NC(=O)C(C)C)c2)CC1)(c1ccccc1)c1ccccc1` [Example 16, N-{3-[1-(3{[(ETHYLSULFANYL)(DIPHENYL)ACETYL]AMINO}PROPYL)-4-PIPERIDINYL] PHENYL}-2-METHYLPROPANAMIDE] the figure was 1040 nM; with `CC(C)C(=O)Nc1ccc(F)c(C2CCN(CCCNC(=O)C(C)(C)c3ccc(Cl)cc3)CC2)c1` [Example 127], 175 nM; with `COc1ccc(NC(=O)C(C)C)cc1C1CCN(CCCNC(=O)C(c2ccc(F)cc2)c2ccc(F)cc2)CC1` [Example 23], 13.1 nM. The same measure, in the same setting: with `CCC(=O)Nc1cccc(C2CCN(CCCNC(=O)C3(c4ccc(F)cc4)CCCC3)CC2)c1` [Example 60] the figure was 41.3 nM.

With `CC(C)C(=O)Nc1cncc(C2CCN(CCCNC(=O)C(c3ccc(F)cc3)c3ccc(F)cc3)CC2)c1` [Example 172, N-{5-[1-(3-{[bis(4-fluorophenyl)acetyl]amino}propyl)-4-piperidinyl]-3-pyridinyl}-2-methylpropanamide], at rat MCH1 receptor, the Ki stood at 2.5 nM.

Regarding `Cc1ccc(C(C(=O)NCCCN2CCC(c3cccc(NC(=O)OC(C)C)c3)CC2)c2ccc(C)cc2)cc1` [Example 145, ISOPROPYL 3-[1-(3-{[BIS(4-METHYLPHENYL)ACETYL]AMINO}PROPYL)-4-PIPERIDINYL]PHENYLCARBAMATE], the Ki on rat MCH1 receptor was 26.9 nM. Same read-out and setting: next, `CC(C)C(=O)Nc1cccc(C2CCN(CCCNC(=O)C(C)c3ccc(Cl)cc3)CC2)c1` (stereo not drawn) [Example 37, 2-(4-CHLOROPHENYL)-N-(3-{4-[3-(ISOBUTYRYLAMINO)PHENYL]-1-PIPERIDINYL} PROPYL)PROPANAMIDE]: 19.5 nM. Same read-out and setting: with `CN(C)C(=O)Nc1cccc(C2CCN(CCCNC(=O)C(c3ccc(F)cc3)c3ccc(F)cc3)CC2)c1` [Example 139] the figure was 33.4 nM.

On to `CC(C)C(=O)Nc1ccc(F)c(C2CCN(CCCNC(=O)C(c3ccc(Cl)cc3)c3ccc(Cl)cc3)CC2)c1` [Example 54], for which the Ki at rat MCH1 receptor worked out at 2.2 nM. As for `Cc1ccc(NC(=O)C(C)C)cc1C1CCN(CCCNC(=O)C2(c3ccc(F)cc3)CCCCC2)CC1` [Example 92], the inhibitory constant (Ki) on rat MCH1 receptor turned out to be 2.6 nM.

For the molecule `CC(=O)Nc1cccc(C2CCN(CCCNC(=O)C3(c4ccc(F)cc4)CCCC3)CC2)c1` [Example 72, N-(3-{4-[3-(ACETYLAMINO)PHENYL]-1-PIPERIDINYL}PROPYL)-1-(4-FLUOROPHENYL) CYCLOPENTANECARBOXAMIDE], at rat MCH1 receptor, the Ki stood at 52.3 nM. On to `CCC(=O)Nc1cccc(C2CCN(CCCNC(=O)C(C)(C)c3ccc(Cl)cc3)CC2)c1` [Example 7], for which the inhibitory constant (Ki) on rat MCH1 receptor was determined as 7.9 nM. On the same count and under the same terms, next, `CC(C)C(=O)Nc1cccc(C2CCN(CCCNC(=O)C3(c4ccc(F)cc4)CCCCC3)CC2)n1` [Example 68, 1-(4-FLUOROPHENYL)-N-(3-{4-[6-(ISOBUTYRYLAMINO)-2-PYRIDINYL]-1-PIPERIDINYL} PROPYL)CYCLOHEXANECARBOXAMIDE]: 16.9 nM. Same read-out and setting: with `Cc1ccc(NC(=O)C(C)C)cc1C1CCN(CCCNC(=O)C(c2ccc(Cl)cc2)c2ccc(Cl)cc2)CC1` [Example 52] the figure was 4.1 nM; with `CC(C)C(=O)Nc1cccc(C2CCN(CCCNC(=O)C(Br)c3ccccc3)CC2)c1` (stereo not drawn) [Example 9, N-{3-[1-(3-{[BROMO(PHENYL)ACETYL]AMINO}PROPYL)-4-PIPERIDINYL] PHENYL}-2-METHYLPROPANAMIDE], 71.6 nM; with `CC(C)C(=O)Nc1ccc(F)c(C2CCN(CCCNC(=O)C3(c4ccc(Cl)cc4)CCCC3)CC2)c1` [Example 128], 2.9 nM. Same read-out and setting: with `Cc1ccc(NC(=O)C(C)C)cc1C1CCN(CCCNC(=O)[C@@H](C)c2ccc(F)cc2)CC1` [Example 168, (2S)-2-(4-fluorophenyl)-N-(3-{4-[5-(isobutyrylamino)-2-methylphenyl]-1-piperidinyl}propyl) propanamide] the figure was 12.1 nM; with `O=C(Nc1cccc(C2CCN(CCCNC(=O)C3(c4ccc(F)cc4Cl)CCCC3)CC2)c1)C1CC1` [Example 119, 1-(2-CHLORO-4-FLUOROPHENYL)-N-[3-(4-{3-[(CYCLOPROPYLCARBONYL)AMINO] PHENYL}-1-PIPERIDINYL)PROPYL]CYCLOPENTANECARBOXAMIDE], 18.6 nM; with `CCN(CCCN1CCC(c2cccc(NC(=O)C(C)C)c2)CC1)C(=O)C(c1ccccc1)c1ccccc1` [Example 126], 3 nM. On to `Cc1ccc(NC(=O)C(C)C)cc1C1CCN(CCCNC(=O)[C@H](C)c2ccc(F)cc2)CC1` [Example 169, (2R)-2-(4-fluorophenyl)-N-(3-{4-[5-(isobutyrylamino)-2-methylphenyl]-1-piperidinyl}propyl) propanamide], for which the Ki at rat MCH1 receptor was found to be 35.9 nM.
